Test systems include S. marcescens; A. calcoaceticus; E. coli; E. faecalis; S. maltophilia; P. aeruginosa; S. aureus; K. pneumoniae.
Format in all cases: cell-based
The test system of another assay is E. cloacae. As to conditions: E. cloacae ECL007.
The test system of another assay is S. epidermidis. As to conditions: S. epidermidis SE010.
In assay [1] the test system is inherently resistant microorganisms. The experiment in a line: microbe, parasite or virus in culture.
Assay [2] has as its system vancomycin / teicoplanin resistant enterococci. Nature of the assay: microbe, parasite or virus in culture. As to conditions: for Peptide MIC Alone: Amikacin section; for FIC: peptide + Amikacin.
The subject of another assay is bacterial isolates. Nature of the assay: microbe, parasite or virus in culture.
Assay [3] has as its system microorganisms with acquired resistance. The experiment in a line: microbe, parasite or virus in culture. The conditions noted are these: for Peptide MIC Alone: Gentamicin section; for FIC: peptide + Gentamicin.

Where two headings read alike, the source gives them in different places. Where only a bound is given, the exact number is not on record here.

In the case of ALRWPWWPWRRK [MBI 11H01CN], the MIC was over 128 µg/mL in the assay with S. marcescens (S. marcescens SMS003); 2 µg/mL in the assay with A. calcoaceticus (A. calcoaceticus AC002); 8 µg/mL with E. coli (E. coli ECO005); over 128 µg/mL in the assay on E. cloacae; 2 µg/mL in the assay on E. faecalis (E. faecalis EFS001); 8 µg/mL with E. faecalis (E. faecalis EFS008). In addition, the minimum inhibitory concentration (MIC) with S. maltophilia (S. maltophilia SMA002) worked out at 32 µg/mL; against P. aeruginosa (P. aeruginosa PA004) it was 128 µg/mL; with S. aureus (S. aureus SA014) it was 2 µg/mL; against S. aureus (S. aureus SA093) it was 1 µg/mL; in the assay on S. epidermidis it was 2 µg/mL; with K. pneumoniae (K. pneumoniae KP001) it was 8 µg/mL.
As to CLRWPWWPWRRK [MBI 11D19CN], the MIC was over 128 µg/mL with S. marcescens (S. marcescens SMS003); 8 µg/mL with A. calcoaceticus (A. calcoaceticus AC002); 32 µg/mL against E. coli (E. coli ECO005); over 128 µg/mL against E. cloacae; 4 µg/mL in the assay with E. faecalis (E. faecalis EFS001); 64 µg/mL with E. faecalis (E. faecalis EFS008). Moreover, the MIC in the assay with S. maltophilia (S. maltophilia SMA002) came to 64 µg/mL; against P. aeruginosa (P. aeruginosa PA004), 128 µg/mL; against S. aureus (S. aureus SA014) it was 4 µg/mL; in the assay with S. aureus (S. aureus SA093), 2 µg/mL; against S. epidermidis, 8 µg/mL; against K. pneumoniae (K. pneumoniae KP001), 32 µg/mL.
Turning to IARWPWWPWRRK [MBI 11H02CN], the MIC with S. marcescens (S. marcescens SMS003) was over 128 µg/mL; in the assay with A. calcoaceticus (A. calcoaceticus AC002), 4 µg/mL; in the assay with E. coli (E. coli ECO005) it was 16 µg/mL; against E. cloacae, over 128 µg/mL; in the assay on E. faecalis (E. faecalis EFS001) it was 2 µg/mL; in the assay on E. faecalis (E. faecalis EFS008) it was 16 µg/mL. The minimum inhibitory concentration (MIC) is 64 µg/mL in the assay on S. maltophilia (S. maltophilia SMA002); over 128 µg/mL in the assay with P. aeruginosa (P. aeruginosa PA004); 2 µg/mL with S. aureus (S. aureus SA014); 1 µg/mL in the assay on S. aureus (S. aureus SA093); 4 µg/mL with S. epidermidis; 32 µg/mL in the assay on K. pneumoniae (K. pneumoniae KP001).
Take ILAWPWWPWRRK [MBI 11H03CN]: the MIC against S. marcescens (S. marcescens SMS003) is over 128 µg/mL; in the assay with A. calcoaceticus (A. calcoaceticus AC002), 8 µg/mL; in the assay with E. coli (E. coli ECO005), 16 µg/mL; against E. cloacae, over 128 µg/mL; against E. faecalis (E. faecalis EFS001), 2 µg/mL; in the assay with E. faecalis (E. faecalis EFS008) it was 8 µg/mL. Further, the MIC against S. maltophilia (S. maltophilia SMA002) was 64 µg/mL; in the assay with P. aeruginosa (P. aeruginosa PA004) it was over 128 µg/mL; in the assay on S. aureus (S. aureus SA014), 2 µg/mL; in the assay on S. aureus (S. aureus SA093), 2 µg/mL; in the assay with S. epidermidis it was 4 µg/mL; in the assay on K. pneumoniae (K. pneumoniae KP001), 16 µg/mL.
With ILKKNPNNPARRK [MBI 11CNX1], the MIC against S. marcescens (S. marcescens SMS003) was over 64 µg/mL; in the assay with A. calcoaceticus (A. calcoaceticus AC001), over 64 µg/mL; in the assay on E. coli (E. coli ECO005), 64 µg/mL; in the assay with E. cloacae, over 64 µg/mL; in the assay on E. faecalis (E. faecalis EFS004), 16 µg/mL; in the assay on S. maltophilia (S. maltophilia SMA002) it was over 64 µg/mL. The MIC was over 64 µg/mL against P. aeruginosa (P. aeruginosa PA024), 2 µg/mL with S. aureus (S. aureus SA006) and over 64 µg/mL in the assay with K. pneumoniae (K. pneumoniae KP001).
On to ILKKWPNNPNRRK [MBI 11CNW1], for which the minimum inhibitory concentration (MIC) was over 128 µg/mL with S. marcescens (S. marcescens SMS003); 8 µg/mL with A. calcoaceticus (A. calcoaceticus AC002); 32 µg/mL in the assay with E. coli (E. coli ECO005); 64 µg/mL in the assay on E. cloacae; 8 µg/mL against E. faecalis (E. faecalis EFS001); 32 µg/mL with S. maltophilia (S. maltophilia SMA002). For the same sequence, the results for the MIC against P. aeruginosa (P. aeruginosa PA004), with S. aureus (S. aureus SA010) and against K. pneumoniae (K. pneumoniae KP001) were 64 µg/mL, 4 µg/mL and 32 µg/mL, respectively.
For the sequence ILPWKWPWWPWRR [MBI 10], the minimum inhibitory concentration (MIC) is over 128 µg/mL with S. marcescens (S. marcescens SMS003); 128 µg/mL with A. calcoaceticus (A. calcoaceticus AC001); 128 µg/mL in the assay on E. coli (E. coli ECO002); 8 µg/mL against E. faecalis (E. faecalis EFS004); 128 µg/mL against S. maltophilia (S. maltophilia SMA001); over 128 µg/mL with P. aeruginosa (P. aeruginosa PA003). Moreover, the minimal inhibitory concentration (MIC) against S. aureus (S. aureus SA007) was found to be 2 µg/mL; against K. pneumoniae (K. pneumoniae KP001) it was 128 µg/mL.
With ILRNPNNPNRRK [MBI 11B7CNF12], the MIC against S. marcescens (S. marcescens strain SMS003) is over 128 µg/mL; in the assay on A. calcoaceticus (A. calcoaceticus strain AC002), 4 µg/mL; with E. coli (E. coli strain ECO005), 16 µg/mL; in the assay on E. faecalis (E. faecalis strain EFS001), 2 µg/mL; against S. maltophilia (S. maltophilia strain SMA002) it was 64 µg/mL; with P. aeruginosa (P. aeruginosa strain PA004), over 128 µg/mL. The sequence also displayed an MIC with K. pneumoniae (K. pneumoniae strain KP001) of 16 µg/mL.
KWKLFIKKLTPAVKKVLLTGLPALIS [MBI 29F1]: the “Peptide MIC + Amikacin” value came out at 2 µg/mL in assay [1] (A. baumannii); 2 µg/mL in [1] (S. maltophilia); 0.5 µg/mL in [2] (E. faecalis EFS008); 16 µg/mL in assay [2] (E. faecium EFM004); 4 µg/mL in the assay on bacterial isolates (A. baumannii ABI001); 2 µg/mL with bacterial isolates (A. baumannii ABI003). The “Peptide MIC + Amikacin” value with bacterial isolates (E. coli ECO022) is 2 µg/mL; in the assay with bacterial isolates (E. faecalis EFS008), 0.125 µg/mL; in the assay with bacterial isolates (E. faecium EFM004), 8 µg/mL; with bacterial isolates (P. aeruginosa PA022), 0.125 µg/mL; in the assay on bacterial isolates (S. aureus SA014 MRSA), 0.125 µg/mL; with bacterial isolates (S. epidermidis SE002), 4 µg/mL. Besides, the “Peptide MIC + Amikacin” value is 8 µg/mL in the assay with bacterial isolates (S. epidermidis SE003), 2 µg/mL in the assay on bacterial isolates (S. maltophilia SMA021) and 4 µg/mL with bacterial isolates (S. maltophilia SMA022). For the same sequence, the “Peptide MIC Alone” value in [1] (A. baumannii, Amikacin section) came out at 8 µg/mL; in assay [2] (E. faecalis EFS008), 4 µg/mL; in assay [2] (E. faecium EFM004), 32 µg/mL; in the assay with bacterial isolates (1. Amikacin, A. baumannii ABI001), 8 µg/mL; with bacterial isolates (1. Amikacin, A. baumannii ABI003), 4 µg/mL; with bacterial isolates (1. Amikacin, E. coli ECO022), 4 µg/mL. Moreover, the “Peptide MIC Alone” value with bacterial isolates (1. Amikacin, E. faecalis EFS008) came out at 4 µg/mL; with bacterial isolates (1. Amikacin, E. faecium EFM004) it was 32 µg/mL; in the assay on bacterial isolates (1. Amikacin, P. aeruginosa PA022), 4 µg/mL; with bacterial isolates (1. Amikacin, S. aureus SA014 MRSA), 4 µg/mL; in the assay on bacterial isolates (1. Amikacin, S. epidermidis SE002), 32 µg/mL; in the assay with bacterial isolates (1. Amikacin, S. epidermidis SE003), 32 µg/mL. Further, the “Peptide MIC Alone” value in the assay with bacterial isolates (1. Amikacin, S. maltophilia SMA021) was 8 µg/mL; in the assay on bacterial isolates (1. Amikacin, S. maltophilia SMA022), 16 µg/mL; with bacterial isolates (4. Gentamicin, P. aeruginosa PA023) it was 128 µg/mL; in the assay with bacterial isolates (4. Gentamicin, S. maltophilia SMA016), 32 µg/mL; with bacterial isolates (4. Gentamicin, S. maltophilia SMA017), 4 µg/mL; in assay [3] (A. calcoaceticus AC001), 8 µg/mL. Besides, in [3] (P. aeruginosa PA023), the “Peptide MIC Alone” value was 128 µg/mL. Further, the FIC in assay [1] (peptide + Amikacin, A. baumannii) stood at 0.75; in assay [2] (E. faecalis EFS008) it was 0.19; in assay [2] (E. faecium EFM004) it was 0.53; with bacterial isolates (peptide + Amikacin, A. baumannii ABI001), 0.51; with bacterial isolates (peptide + Amikacin, A. baumannii ABI003) it was 0.63; in the assay on bacterial isolates (peptide + Amikacin, E. coli ECO022), 0.51. Besides, the FIC turned out to be 0.28 with bacterial isolates (peptide + Amikacin, E. faecalis EFS008); 0.38 in the assay on bacterial isolates (peptide + Amikacin, E. faecium EFM004); 0.53 with bacterial isolates (peptide + Amikacin, P. aeruginosa PA022); 0.53 in the assay with bacterial isolates (peptide + Amikacin, S. aureus SA014 MRSA); 0.38 with bacterial isolates (peptide + Amikacin, S. epidermidis SE002); 0.50 in the assay with bacterial isolates (peptide + Amikacin, S. epidermidis SE003). Besides, the FIC with bacterial isolates (peptide + Amikacin, S. maltophilia SMA021) is reported as 0.31; in the assay on bacterial isolates (peptide + Amikacin, S. maltophilia SMA022), 0.31; with bacterial isolates (peptide + Gentamicin, P. aeruginosa PA023) it was 0.52; with bacterial isolates (peptide + Gentamicin, S. maltophilia SMA016), 0.56; in the assay on bacterial isolates (peptide + Gentamicin, S. maltophilia SMA017), 0.53; in assay [3] (A. calcoaceticus AC001) it was 0.75. The FIC in [3] (P. aeruginosa PA023) was 0.52. For the same sequence, the “Amikacin MIC + Peptide” value worked out at 4 µg/mL in [2] (E. faecalis EFS008); 8 µg/mL in [2] (E. faecium EFM004); 0.25 µg/mL with bacterial isolates (A. baumannii ABI001); 2 µg/mL in the assay with bacterial isolates (A. baumannii ABI003); 16 µg/mL with bacterial isolates (E. faecalis EFS008); 32 µg/mL with bacterial isolates (E. faecium EFM004). For the same sequence, the “Amikacin MIC + Peptide” value is 64 µg/mL with bacterial isolates (P. aeruginosa PA022); 16 µg/mL with bacterial isolates (S. aureus SA014 MRSA); 16 µg/mL with bacterial isolates (S. epidermidis SE002); 16 µg/mL in the assay on bacterial isolates (S. epidermidis SE003); 8 µg/mL in the assay on bacterial isolates (S. maltophilia SMA021); 16 µg/mL in the assay with bacterial isolates (S. maltophilia SMA022). Further, the “Gentamicin MIC + Peptide” value in the assay with bacterial isolates (P. aeruginosa PA023) is 0.125 µg/mL; with bacterial isolates (S. maltophilia SMA016), 16 µg/mL; with bacterial isolates (S. maltophilia SMA017), 32 µg/mL; in assay [3] (A. calcoaceticus AC001), 2 µg/mL; in assay [3] (P. aeruginosa PA023) it was 0.125 µg/mL. Besides, the “Peptide MIC + Gentamicin” value with bacterial isolates (P. aeruginosa PA023) is 64 µg/mL; in the assay on bacterial isolates (S. maltophilia SMA016) it was 16 µg/mL; in the assay with bacterial isolates (S. maltophilia SMA017), 0.125 µg/mL; in [3] (A. calcoaceticus AC001) it was 4 µg/mL; in [3] (P. aeruginosa PA023) it was 64 µg/mL.

The values above are taken from patent publication US20020035061A1, “COMPOSITIONS AND METHODS FOR TREATING INFECTIONS USING CATIONIC PEPTIDES ALONE OR IN COMBINATION WITH ANTIBIOTICS” (priority 1996, published 2002).
